Assay results from patent publication US10577378B2, “EIF4A-inhibiting compounds and methods related thereto” (eFFECTOR Therapeutics, Inc., priority 2015, dated 2020).

System: MDA-MB-231 human breast cancer cells
Test: Cell proliferation assay (CellTiter-Glo, 72 hours treatment)
Format: cell-based
Conditions: Homo sapiens; MDA-MB-231 cells, 72 hours at 37° C., CellTiter-Glo; read-out: MDA-MB-231 cell proliferation assay (IC50)
Method in brief: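 MDA-MB-231 cells seeded at 2,500 cells/well, treated next day with compound or DMSO vehicle for 72 h at 37 °C. Proliferation read by CellTiter-Glo; IC50 from sigmoidal non-linear regression, binned as +++ (<100 nM), ++ (100–1000 nM), + (>1000 nM).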

| SMILES | IC50 [nM] |
| --- | --- |
| COc1cncc2c1[C@]1(O)[C@H](O)[C@H](CN3CC4(COC4)C3)[C@@H](c3ccccc3)[C@]1(c1ccc(C#N)cc1)O2 (racemic) [236F, Rac-4-((4bS,5R,6S,7S,7aR)-6-((2-oxa-6-azaspiro[3.3]heptan-6-yl)methyl)-4b,5-dihydroxy-4-methoxy-7-phenyl-4b,5,6,7-tetrahydro-7aH-cyclopenta[4,5]furo[2,3-c]pyridin-7a-yl)benzonitrile] | 100 to 1000 |
| C#CC1C[C@@H](c2ccccc2)[C@]2(c3ccc(Br)cc3)Oc3cc(Cl)cnc3[C@]12O (mixture of isomers) [48F, Rac-(5aR,6S,8aR)-5a-(4-bromophenyl)-3-chloro-8-ethynyl-6-phenyl-5a,6,7,8-tetrahydro-8aH-cyclopenta[4,5]furo[3,2-b]pyridin-8a-ol] | > 1000 |
| COc1cncc2c1[C@]1(O)[C@H](O)[C@H](CNC3COC3)[C@@H](c3ccccc3)[C@]1(c1ccc(C#N)cc1)O2 (racemic) [240F, Rac-4-((4bS,5R,6S,7S,7aR)-4b,5-dihydroxy-4-methoxy-6-((oxetan-3-ylamino)methyl)-7-phenyl-4b,5,6,7-tetrahydro-7aH-cyclopenta[4,5]furo[2,3-c]pyridin-7a-yl)benzonitrile] | 100 to 1000 |
| CN(C)C(=O)[C@H]1[C@@H](O)[C@@]2(O)c3nn(C)c(C#N)c3O[C@@]2(c2ccc(C#N)cc2)[C@@H]1c1ccccc1 (racemic) [82F, Rac-(4aR,5S,6R,7R,7aS)-3-cyano-4a-(4-cyanophenyl)-7,7a-dihydroxy-N,N,2-trimethyl-5-phenyl-2,4a,5,6,7,7a-hexahydrocyclopenta[4,5]furo[3,2-c]pyrazole-6-carboxamide] | > 1000 |
| O[C@]12c3ncc(Cl)cc3O[C@@]1(c1ccc(Br)cc1)[C@H](c1ccccc1)C[C@@]21CCO1 (racemic) [38F, Rac-(5aR,6S,8R,8aS)-5a-(4-bromophenyl)-3-chloro-6-phenyl-6,7-dihydrospiro[cyclopenta[4,5]furo[3,2-b]pyridine-8,2′-oxetan]-8a(5aH)-ol] | > 1000 |
| COc1cncc2c1[C@]1(O)[C@H](O)[C@H](CNCCF)[C@@H](c3ccccc3)[C@]1(c1ccc(C#N)cc1)O2 (racemic) [259F, Rac-4-((4bS,5R,6S,7S,7aR)-6-(((2-fluoroethyl)amino)methyl)-4b,5-dihydroxy-4-methoxy-7-phenyl-4b,5,6,7-tetrahydro-7aH-cyclopenta[4,5]furo[2,3-c]pyridin-7a-yl)benzonitrile] | 100 to 1000 |
| COc1nc(C#N)cc2c1[C@]1(O)[C@H](O)[C@H](CN3CCC3)[C@@H](c3ccccc3)[C@]1(c1ccc(C#N)cc1)O2 (single isomer, unassigned) [212F] | < 100 |
| COc1cncc2c1[C@]1(O)[C@H](O)[C@H](C(=O)N3CC(F)(F)C3)[C@@H](c3ccccc3)[C@]1(c1ccc(Br)cc1)O2 (racemic) [121F, Rac-((4bS,5R,6R,7S,7aR)-7a-(4-bromophenyl)-4b,5-dihydroxy-4-methoxy-7-phenyl-4b,6,7,7a-tetrahydro-5H-cyclopenta[4,5]furo[2,3-c]pyridin-6-yl)(3,3-difluoroazetidin-1-yl)methanone] | 100 to 1000 |
| CN(C)C[C@H]1[C@@H](C#N)[C@@]2(O)c3ncc(Cl)cc3O[C@@]2(c2ccc(Br)cc2)[C@@H]1c1ccccc1 (racemic) [227F, Rac-(5aR,6S,7R,8S,8aR)-5a-(4-bromophenyl)-3-chloro-7-((dimethylamino)methyl)-8a-hydroxy-6-phenyl-5a,7,8,8a-tetrahydro-6H-cyclopenta[4,5]furo[3,2-b]pyridine-8-carbonitrile] | > 1000 |
| CCN(CC)C[C@H]1[C@@H](O)[C@@]2(O)c3c(cc(C#N)nc3OC)O[C@@]2(c2ccc(Br)cc2)[C@@H]1c1ccccc1 (racemic) [159Fa, Rac-(5aR,6S,7S,8R,8aS)-5a-(4-bromophenyl)-7-((diethylamino)methyl)-8,8a-dihydroxy-1-methoxy-6-phenyl-5a,7,8,8a-tetrahydro-6H-cyclopenta[4,5]furo[3,2-c]pyridine-3-carbonitrile] | < 100 |
| COc1cncc2c1[C@]1(O)[C@@H](CN3CCN(C)CC3)[C@H](CO)[C@@H](c3ccccc3)[C@]1(c1ccc(C#N)cc1)O2 (racemic) [184F, Rac-4-((4bR,5R,6R,7S,7aR)-4b-hydroxy-6-(hydroxymethyl)-4-methoxy-5-((4-methyl-piperazin-1-yl)methyl)-7-phenyl-4b,5,6,7-tetrahydro-7aH-cyclopenta[4,5]furo[2,3-c]pyridin-7a-yl)benzonitrile] | < 100 |
| COc1nc(Cl)cc2c1[C@]1(O)[C@H](O)[C@H](CN3CCOCC3)[C@@H](c3ccccc3)[C@]1(c1ccc(C#N)cc1)O2 (racemic) [152F, Rac-4-((5aR,6S,7S,8R,8aS)-3-chloro-8,8a-dihydroxy-1-methoxy-7-(morpholinomethyl)-6-phenyl-6,7,8,8a-tetrahydro-5aH-cyclopenta[4,5]furo[3,2-c]pyridin-5a-yl)benzonitrile] | < 100 |
| COc1cncc2c1[C@]1(O)[C@H](O)[C@H](CN(C)CCO)[C@@H](c3ccccc3)[C@]1(c1ccc(C#N)cc1)O2 (racemic) [75F, rac-4-((4bS,5R,6S,7S,7aR)-4b,5-dihydroxy-6-(((2-hydroxyethyl)(methyl)amino)methyl)-4-methoxy-7-phenyl-4b,5,6,7-tetrahydro-7aH-cyclopenta[4,5]furo[2,3-c]pyridin-7a-yl)benzonitrile] | 100 to 1000 |
| OC[C@@H]1C[C@@H](c2ccccc2)[C@]2(c3ccc(Br)cc3)Oc3cc(Cl)cnc3[C@]12O (racemic) [166F, rac-(5aR,6S,8S,8aR)-5a-(4-bromophenyl)-3-chloro-8-(hydroxymethyl)-6-phenyl-5a,6,7,8-tetrahydro-8aH-cyclopenta[4,5]furo[3,2-b]pyridin-8a-ol] | 100 to 1000 |
| COc1cncc2c1[C@]1(O)[C@H](O)[C@H](CN(C)C)[C@@H](c3ccccc3)[C@]1(c1ccc(C(F)(F)F)cc1)O2 (single isomer, unassigned) [107F] | 100 to 1000 |
| COc1nc(C#N)cc2c1[C@]1(O)[C@H](O)[C@H](CN3CCC(F)(F)C3)[C@@H](c3ccccc3)[C@]1(c1ccc(C#N)cc1)O2 (racemic) [153F, Rac-(5aR,6S,7S,8R,8aS)-5a-(4-cyanophenyl)-7-((3,3-difluoropyrrolidin-1-yl)methyl)-8,8a-dihydroxy-1-methoxy-6-phenyl-5a,7,8,8a-tetrahydro-6H-cyclopenta[4,5]furo[3,2-c]pyridine-3-carbonitrile] | 100 to 1000 |
| CS(=O)(=O)[C@H]1[C@@H](O)[C@@]2(O)c3ncc(C#N)cc3O[C@@]2(c2ccc(C#N)cc2)[C@@H]1c1ccccc1 [86F, (5aR,6S,7R,8S,8aS)-5a-(4-cyanophenyl)-8,8a-dihydroxy-7-(methylsulfonyl)-6-phenyl-5a,7,8,8a-tetrahydro-6H-cyclopenta[4,5]furo[3,2-b]pyridine-3-carbonitrile] | > 1000 |
| N#Cc1ccc([C@@]23Oc4cc(Cl)cnc4[C@]2(O)[C@H](O)[C@H](S(=O)(=O)c2ccccn2)[C@H]3c2ccccc2)cc1 (racemic) [164F, Rac-4-((5aR,6S,7R,8S,8aS)-3-chloro-8,8a-dihydroxy-6-phenyl-7-(pyridin-2-ylsulfonyl)-6,7,8,8a-tetrahydro-5aH-cyclopenta[4,5]furo[3,2-b]pyridin-5a-yl)benzonitrile] | 100 to 1000 |
| COc1nc(C#N)cc2c1[C@]1(O)[C@@H](CN(C)C)[C@H](CO)[C@@H](c3ccccc3)[C@]1(c1ccc(C#N)cc1)O2 (racemic) [210F, Rac-(5aR,6S,7R,8R,8aR)-5a-(4-cyanophenyl)-8-((dimethylamino)methyl)-8a-hydroxy-7-(hydroxymethyl)-1-methoxy-6-phenyl-5a,7,8,8a-tetrahydro-6H-cyclopenta[4,5]furo[3,2-c]pyridine-3-carbonitrile] | < 100 |
| COc1cncc2c1[C@]1(O)[C@H](O)[C@H](CNCC(C)(C)O)[C@@H](c3ccccc3)[C@]1(c1ccc(C#N)cc1)O2 (single isomer, unassigned) [254F] | < 100 |
| COc1nc(C#N)cc2c1[C@]1(O)[C@H](O)[C@H](CNC(C)(C)C)[C@@H](c3ccccc3)[C@]1(c1ccc(C#N)cc1)O2 (racemic) [155F, Rac-(5aR,6S,7S,8R,8aS)-7-((tert-butylamino)methyl)-5a-(4-cyanophenyl)-8,8a-dihydroxy-1-methoxy-6-phenyl-5a,7,8,8a-tetrahydro-6H-cyclopenta[4,5]furo[3,2-c]pyridine-3-carbonitrile] | 100 to 1000 |
| O[C@]12c3ncc(Cl)cc3O[C@@]1(c1ccc(Br)cc1)[C@H](c1ccccc1)C[C@@H]2CN1CCOCC1 (racemic) [177F, rac-(5aR,6S,8R,8aR)-5a-(4-bromophenyl)-3-chloro-8-(morpholinomethyl)-6-phenyl-5a,6,7,8-tetrahydro-8aH-cyclopenta[4,5]furo[3,2-b]pyridin-8a-ol] | 100 to 1000 |
| N#C[C@H]1[C@@H](O)[C@@]2(O)c3ncc(Cl)cc3O[C@@]2(c2ccc(Br)cc2)[C@@H]1c1ccccc1 (racemic) [27F, rac-(5aR,6S,7S,8R,8aS)-5a-(4-bromophenyl)-3-chloro-8,8a-dihydroxy-6-phenyl-5a,7,8,8a-tetrahydro-6H-cyclopenta[4,5]furo[3,2-b]pyridine-7-carbonitrile] | 100 to 1000 |
| COc1cncc2c1[C@]1(O)[C@H](O)[C@H](CN3CCC(F)(F)CC3)[C@@H](c3ccccc3)[C@]1(c1ccc(C#N)cc1)O2 (single isomer, unassigned) [113F] | 100 to 1000 |
| CNC[C@H]1[C@@H](O)[C@@]2(O)c3c(cc(C#N)nc3OC)O[C@@]2(c2ccc(C#N)cc2)[C@@H]1c1ccccc1 (racemic) [225F, Rac-(5aR,6S,7S,8R,8aS)-5a-(4-cyanophenyl)-8,8a-dihydroxy-1-methoxy-7-((methylamino)methyl)-6-phenyl-5a,7,8,8a-tetrahydro-6H-cyclopenta[4,5]furo[3,2-c]pyridine-3-carbonitrile] | < 100 |
| COc1cncc2c1[C@]1(O)[C@H](O)[C@H](CN3CCNCC3)[C@@H](c3ccccc3)[C@]1(c1ccc(C#N)cc1)O2 (single isomer, unassigned) [67F] | 100 to 1000 |
